Assay results: patent US20080039468A1, “Novel 3-Phenyltetrahydrocinnolin-5-Ol Derivative and Medicinal Use Thereof” (priority 2004, published 2008)
Converted amounts (≈) assume the structure as drawn.

The compounds below were run on Mastocarcinoma Cells MCF-7 (assay: In vitro antitumor effect on mastocarcinoma cells MCF-7 (Methylene Blue staining, proliferation inhibition)). Conditions: Homo sapiens, MCF7, 72 h; MCF-7 cells, 3 days culture with test compound, RPMI 1640 with 10% serum, Methylene Blue absorbance; read-out: IC50 value (50% cytostatic concentration).
Format: cell-based
Experimental: In Vitro Antitumor Effect on Mastocarcinoma Cells MCF-7
By the use of RPMI 1640 medium (Asahi Tekunogurasu Co., Ltd.) containing 10% serum, 2,000 MCF-7 cells were seeded into a 96-well plate. The cells were cultured for 24 hours under conditions of 37° C. and 5% CO2/95% air, and then a test compound was added thereto, followed by culturing for another 3 days. Cells were stained with a 0.05% Methylene Blue solution and absorbance at 660 nm was measured with a microtiter plate reader (Benchmark Plus, mfd. by BIO RAD Laboratories Inc.). The proliferation inhibition rate was calculated by the following equation and the 50% cytostatic concentration was determined from a dose-response curve. Proliferation inhibition rate=((absorbance for control group−absorbance for drug-treated group)/absorbance for control group))×100
`CCOCC(=O)OC1CC(C)Cc2nnc(-c3cccc(C(F)(F)F)c3)cc21` (centres unmarked) [Compound No. 13, 5-ethoxyacetyloxy-7-methyl-3-(3-trifluoromethylphenyl)-5,6,7,8-tetrahydrocinnoline] was tested, and the IC50 was 0.135 µg/mL (≈ 0.342 µM).
`CC1Cc2nnc(-c3cccc(C(F)(F)F)c3)cc2C(OC(=O)COCC(=O)O)C1` (centres unmarked) [Compound No. 14, 5-(carboxymethoxyacetyl)oxy-7-methyl-3-(3-trifluoromethylphenyl)-5,6,7,8-tetrahydrocinnoline] showed an IC50 of 0.148 µg/mL (≈ 0.349 µM).
`CC1Cc2nnc(-c3cccc(C(F)(F)F)c3)cc2C(OC(=O)COCC(=O)NCCN2CCOCC2)C1` (centres unmarked) [Compound No. 15, 5-[(2-(morpholin-4-yl)ethyl)aminocarbonylmethoxyacetyl]oxy-7-methyl-3-(3-trifluoromethylphenyl)-5,6,7,8-tetrahydrocinnoline] gave an IC50 of 0.171 µg/mL (≈ 0.319 µM).
`CC1Cc2nnc(-c3cccc(C(F)(F)F)c3)cc2C(OC(=O)COCC(=O)NCc2cccnc2)C1` (centres unmarked) [Compound No. 16, 5-[(pyridin-3-ylmethyl)aminocarbonylmethoxyacetyl]oxy-7-methyl-3-(3-trifluoromethyl-phenyl)-5,6,7,8-tetrahydrocinnoline] was tested, and the IC50 was 0.166 µg/mL (≈ 0.323 µM).
Compound `CC1Cc2nnc(-c3cccc(C(F)(F)F)c3)cc2C(OC(=O)COCC(=O)NCc2ccncc2)C1` (centres unmarked) [Compound No. 17, 5-[(pyridin-4-ylmethyl)aminocarbonylmethoxyacetyl]oxy-7-methyl-3-(3-trifluoromethyl-phenyl)-5,6,7,8-tetrahydrocinnoline] has an IC50 of 0.139 µg/mL (≈ 0.27 µM).
`CC1Cc2nnc(-c3cccc(C(F)(F)F)c3)cc2C(OC(=O)CCC(=O)O)C1` (centres unmarked) [Compound No. 18, 5-(3-carboxypropanoyl)oxy-7-methyl-3-(3-trifluoromethylphenyl)-5,6,7,8-tetrahydrocinnoline] gave an IC50 of 0.981 µg/mL (≈ 2.4 µM).
`CC1Cc2nnc(-c3cccc(C(F)(F)F)c3)cc2C(OC(=O)CCCC(=O)O)C1` (centres unmarked) [Compound No. 19, 5-(4-carboxybutanoyl)oxy-7-methyl-3-(3-trifluoromethylphenyl)-5,6,7,8-tetrahydrocinnoline] gave an IC50 of 0.908 µg/mL (≈ 2.15 µM).
Compound `CC1Cc2nnc(-c3cccc(C(F)(F)F)c3)cc2C(OC(=O)CCCN(C)C)C1` (centres unmarked) [Compound No. 21, 5-(4-dimethylaminobutanoyl)oxy-7-methyl-3-(3-trifluoromethylphenyl)-5,6,7,8-tetrahydro-cinnoline] has an IC50 of 0.129 µg/mL (≈ 0.306 µM).
With `CC1Cc2nnc(-c3cccc(C(F)(F)F)c3)cc2C(OC(=O)CCC(=O)NCCN2CCOCC2)C1` (centres unmarked) [Compound No. 23, 5-[3-[2-(morpholin-4-yl)ethyl]amino-carbonylpropanoyl]oxy-7-methyl-3-(3-trifluoromethylphenyl)-5,6,7,8-tetrahydrocinnoline] the IC50 was 0.128 µg/mL (≈ 0.246 µM).
Work on `CC1Cc2nnc(-c3cccc(C(F)(F)F)c3)cc2C(OC(=O)CCC(=O)NCc2cccnc2)C1` (centres unmarked) [Compound No. 24, 5-[3-(pyridin-3-ylmethyl)aminocarbonylpropanoyl]oxy-7-methyl-3-(3-trifluoromethylphenyl)-5,6,7,8-tetrahydrocinnoline] yielded an IC50 of 0.098 µg/mL (≈ 0.197 µM).
`CC1Cc2nnc(-c3cccc(C(F)(F)F)c3)cc2C(OC(=O)CCC(=O)NCc2ccncc2)C1` (centres unmarked) [Compound No. 25, 5-[3-(pyridin-4-ylmethyl)aminocarbonylpropanoyl]oxy-7-methyl-3-(3-trifluoromethylphenyl)-5,6,7,8-tetrahydrocinnoline] showed an IC50 of 0.144 µg/mL (≈ 0.289 µM).
In the case of `COC(=O)CCC(=O)OC1CC(C)Cc2nnc(-c3cccc(C(F)(F)F)c3)cc21` (centres unmarked) [Compound No. 26, 5-(3-methoxycarbonylpropanoyl)oxy-7-methyl-3-(3-trifluoromethylphenyl)-5,6,7,8-tetrahydro-cinnoline], the IC50 is reported as 1.18 µg/mL (≈ 2.79 µM).
For `CCOC(=O)CCC(=O)OC1CC(C)Cc2nnc(-c3cccc(C(F)(F)F)c3)cc21` (centres unmarked) [Compound No. 27, 5-(3-ethoxycarbonylpropanoyl)oxy-7-methyl-3-(3-trifluoromethylphenyl)-5,6,7,8-tetrahydro-cinnoline], the IC50 was 0.736 µg/mL (≈ 1.69 µM).
`COCCOC(=O)OC1CC(C)Cc2nnc(-c3cccc(C(F)(F)F)c3)cc21` (centres unmarked) [Compound No. 38, 5-(2-methoxyethoxycarbonyl)oxy-7-methyl-3-(3-trifluoromethylphenyl)-5,6,7,8-tetrahydro-cinnoline] was tested, and the IC50 was 0.649 µg/mL (≈ 1.58 µM).
With `CC1Cc2nnc(-c3cccc(C(F)(F)F)c3)cc2C(OC(=O)N2CCOCC2)C1.Cl` (centres unmarked) [Compound No. 43, 7-methyl-5-(morpholin-4-yl-carbonyl)oxy-3-(3-trifluoromethylphenyl)-5,6,7,8-tetrahydrocinnoline hydrochloride] the IC50 was 4.34 µg/mL.

Same assay, conditions: MCF-7 cells, 3 days culture with test compound, RPMI 1640 with 10% serum, Methylene Blue absorbance
With `CC1Cc2nnc(-c3cccc(C(F)(F)F)c3)cc2C(OC(=O)CC(O)C(=O)O)C1` (centres unmarked) [Compound No. 20, 5-[(3-carboxy-3-hydroxy)propanoyl]oxy-7-methyl-3-(3-trifluoromethylphenyl)-5,6,7,8-tetrahydrocinnoline] the “IC50 value (50% cytostatic concentration)” value was 1.339 µg/mL (≈ 3.16 µM).
For `CC1Cc2nnc(-c3cccc(C(F)(F)F)c3)cc2C(OC(=O)OCCN2CCOCC2)C1` (centres unmarked) [Compound No. 39, 5-(2-(morpholino-4-yl)ethoxycarbonyl)oxy-7-methyl-3-(3-trifluoromethylphenyl)-5,6,7,8-tetrahydrocinnoline], the “IC50 value (50% cytostatic concentration)” value was 0.152 µg/mL (≈ 0.327 µM).
